Experimental data from patent US11584728B2, “Compositions and methods for the prevention and/or treatment of mitochondrial disease, including Friedreich's ataxia” (STEALTH BIOTHERAPEUTICS INC., priority 2019, dated 2023).
Like-named read-outs stand apart in the source and are kept apart here.

Assays:
lipoxygenase-15 enzyme = lipoxygenase-15 enzyme (Glycine max (Soybean) (Glycine hispida), UniProt P08170); experiment: Lipoxygenase-15 Assay (LO-15-Assay); format: biochemical; settings: reduced (hydroquinone) form
GM03665 cells = experiment: RSL3 Toxicity Assay (RSL3 Assay); format: cell-based, human; settings: for EC50: Homo sapiens, GM03665 cells, RSL3 2 μM, 24 hours, MTT
Description: Example 19: RSL3 Toxicity Assay (RSL3 Assay)
In brief, GM03665 cells (Coriell Institute) were seeded in 96-well plates (Sarstedt) in DMEM cell culture media containing 10% Fetal Bovine serum and 1% Penicillin-Streptomycin (Pen-Strep) antibiotic mix at the amount of 2×10^4/mL (100 μL or 2×10^3 cells per well). Cells were left to rest overnight at 37° C. in a humidified atmosphere with 5% CO2 to allow attachment of the cells to the culture plate. Test compounds were prepared as DMSO stocks (10 mM) and were serially diluted in cell culture media to obtain 2× working solutions. Cell media was discarded and replaced by 50 μL of test compound solutions or cell media with vehicle for control wells. Within 15 minutes, 2× working solution (4 μM) of 1S,3R-RSL3 (CAS #1219810-16-8, Sigma-Aldrich) (diluted from 5 mM DMSO stock in cell culture media) was added. Final reaction volume was 100 μL and final DMSO concentration in reaction was kept below 0.2% (v/v) and equal in all wells. Final RSL3 concentration was 2 μM and test compound final concentrations in reaction were up to 1000 nM. After 24 hours of incubation cell viability was assessed by MTT test. MTT (Sigma-Aldrich) solution 1 mg/mL in 1×PBS (pH=7,4) was prepared 1 hour before the assay and filtered through Filtropur S 0.2 filters (Sarstedt). Cell media with test compounds was discarded and 100 μL of MTT solution was added to cells. The plates were incubated for 2 hours at +37° C. Thereafter, the MTT solution was removed and 100 μL of isopropanol was added to dissolve sediment. Absorption at 570 and 650 nm was measured using Hidex Sense microplate reader.

Nrf-2 = Nrf-2 Activation Assay (Nrf-2 Assay); format: cell-based, human; settings: Table 7; GM03665 fibroblasts, 1 μM, 24 hours, qPCR of Nrf-2 responsive genes
Description: Example 21: Nrf-2 Activation Assay (Nrf-2 Assay)
This assay was developed internally and was designed to determine if the novel test compounds disclosed herein active Nrf-2 and thereby promote resolution of inflammation by the mechanism believed to be responsible for the activity of omaveloxolone.
Briefly, GM03665 Friedreich Ataxia patient fibroblasts were grown in 12 Well Plates (TC Cell+F) (Sarstedt, Nümbrecht Germany), at a density of 12×10^4 cells/per well in DMEM/F12 (Gibco, ThermoFisher Scientific, Waltham, Mass., USA) cell media supplemented with 10% FBS and 1% Pen/Strep. Cells were left to rest overnight at 37° C. in a humidified atmosphere with 5% CO2 to allow attachment of the cells to the culture plate. Before continuing assay visual inspection of each well was done by light microscopy to detect any possible bacterial and fungal contamination. […] After incubation, cell media was removed and total RNA from the cells was isolated using E.Z.N.A.® Total RNA Kit I (Omega Bio-tek, Norcross, Ga., USA) spin columns, and first-strand cDNA synthesis was carried out using a High Capacity cDNA Reverse Transcription Kit (Applied Biosystems™, Foster City, Calif.) following the manufacturer's instructions. qPCR analysis of gene expression was performed by mixing SYBR® Green Master Mix (Applied Biosystems™) with synthesized cDNA and forward and reverse primers. […] (60 cycles), and 95° C. for 60 seconds, followed by melt curve analysis at 72-95° C., 0.3° C./sec. The relative expression levels for each gene were calculated with the ΔΔCt method and normalized to the expression of REEP5 and SNRPD3 genes.

[1] = test system: HepG2 human hepatocarcinoma cells; experiment: Rotenone ATP-Assay (Complex I by-pass); format: cell-based; settings: for EC50: Homo sapiens, 1 h
Description: Example 18: Rotenone ATP-Assay
Introduction: • This assay has been adapted from Haefeli R H, Erb M, Gemperli A C, Robay D, Courdier Fruh I, et al. (2011) NQO1-Dependent Redox Cycling of Idebenone: Effects on Cellular Redox Potential and Energy Levels. PLoS ONE 6(3): e17963. HepG2 human hepatocarcinoma cells were co-incubated with the electron transport chain Complex I toxin rotenone +/−compounds of interest and the corresponding effect on ATP synthesis was measured with a bioluminescent substrate.
Assay Experimental: • In brief, HepG2 cells were plated at 25,000 cells per well in low glucose (1 gram/Liter) DMEM medium +10% fetal calf serum and incubated for 24 hours. The following day, the media was decanted and subsequently replaced with glucose free/serum free DMEM which has been supplemented with 50 micromolar rotenone and compound of interest. Serial dilutions of compound were prepared in 3× dilutions beginning at 25 micromolar. The cells were incubated for 60 minutes in a humidified tissue culture incubator. Following incubation, ATP levels were quantified via bioluminescent assay (Promega […]) and readings were captured on a standard microplate reader.
Calculations: • ATP bioluminescence is plotted versus the log of compound of interest and data were used to generate EC50 values. Curve fitting was performed using a sigmoidal dose response curve fit function (GraphPad Prism software).
Robustness of curve fit was assessed as a quality control measure, with an R squared value of at least 0.80 being required for a successful curve fit. Compounds of interest showing an increase in ATP bioluminescence relative to vehicle control were verified in an independent biological replicate of n=3 technical replicates per dose.
Discussion: • This assay is a direct measure of the ability of compounds of interest to restore ATP production under conditions of inhibition of Complex I of the mitochondrial electron transport chain. As the majority of ATP produced via the electron transport chain is thought to derive from Complex I activity, significant impairment in Complex I function has dire biological consequences. Of note, Complex I mutations are thought to drive pathophysiology in multiple mitochondrial diseases, including Leigh syndrome and Leber's Hereditary Optic Neuropathy (LHON), while diminished Complex I activity and the resultant attenuation of ATP production has been shown in neurodegenerative diseases, including Friedreich's Ataxia, Parkinson's Disease and Huntington's Disease.

[2] = test system: frataxin deficient fibroblasts (GM03665); experiment: Frataxin Deficient Fibroblast Viability Assay (BSO Assay); settings: Homo sapiens, 48 h
intact HepG2 cells = experiment: Rotenone Oxygraph Assay (High-Resolution Respirometry of Intact HepG2 Cells); format: cell-based, human; settings: rotenone 1 μM, compound 10 μM; for Percent increase in ATP (Rotenone Oxygraph Assay), Mean: Table 4; for Percent increase in ATP (Rotenone Oxygraph Assay), Mean / Rotenone Oxygraph Assay % Increase: intact HepG2 cells; for Rotenone Oxygraph Assay % Increase: Table 7
Description: Example 20: Rotenone Oxygraph Assay (High-Resolution Respirometry of Intact HepG2 Cells)
The Oxygraph-2k (O2k, OROBOROS INSTRUMENTS, Austria) was used for measurements of respiration of intact cells. The respirometry was performed in Dulbecco's Modified Eagle Medium (DMEM) high glucose without supplements. All experiments were performed at 37° C.
HepG2 cells (ATCC collection code HB-8065™) were cultured in 10 cm^2 culture dishes in DMEM high glucose medium supplemented with 10% fetal bovine serum (FBS) and 100 units/mL penicillin and 100 μg/mL streptomycin until approximately 90% confluence was reached. Immediately prior to performing the respirometric assay, the cells were washed with media without FBS, trypsinized and resuspended in DMEM high glucose without FBS.
The final concentration of intact cells in the O2k-chamber was 0.5·10^6/mL. After stabilization of respiration, the Complex I inhibitor, rotenone, at 1 μM final concentration was added to inhibit electron flux via Complex I. Then, compound to be tested was added at 10 μM final concentration, and the change in respiration rate of intact cells was monitored.

[3] = Table 3, mean of at least three measurements, nM printed in Table 7, read-out: RSL3 Assay EC50, Mean
[4] = Table 7, read-out: RSL3 Assay EC50
[5] = HepG2 cells, 50 micromolar rotenone, 60 minutes, ATP bioluminescence, read-out: EC50 Rotenone ATP Assay
[6] = Table 7, HepG2 cells, 50 micromolar rotenone, 60 minutes, read-out: Rotenone ATP Assay EC50

| SMILES | Activity in the LO-15 assay (in words) (lipoxygenase-15 enzyme) | EC50 (GM03665 cells; [3]) [nM] | EC50 (GM03665 cells; [4]) [nM] | Nrf-2 Assay (Nrf-2) | EC50 [1, 5] [nM] | EC50 [1, 6] [nM] | Activity in both the BSO Assay and the Rotenone ATP Assay (in words) ([1]; circumvent BSO induced cell death and restore ATP production when Complex I is inhibited) | EC50 ([2]; read-out: BSO Assay) [nM] | EC50 ([2]; read-out: EC50 (nM) BSO Assay) [nM] | Percent increase in ATP (Rotenone Oxygraph Assay), Mean (intact HepG2 cells) | Rotenone Oxygraph Assay % Increase (intact HepG2 cells) | Activity in the RSL3 assay (in words) (GM03665 cells; protection of Friedreich's ataxia fibroblasts from RSL3) | Activity in the Rotenone Oxygraph assay, Complex I by-pass (in words) (intact HepG2 cells) | Rotenone ATP Assay EC50, nM ([1]; Table 7, HepG2 cells, 50 micromolar rotenone, 60 minutes) |
| --- | --- | --- | --- | --- | --- | --- | --- | --- | --- | --- | --- | --- | --- | --- |
| CC1=C(C)C(=O)C(CC[C@](C)(O)CC/C=C(\C)CC/C=C(\C)CCC=C2COC2)=C(C)C1=O [Compound E, 2-((R,6E,10E)-3-hydroxy-3,7,11-trimethyl-14-(oxetan-3-ylidene)tetradeca-6,10-dien-1-yl)-3,5,6-trimethylcyclohexa-2,5-diene-1,4-dione] | outside of the range of the assay | 73.2 | 73.2 | Inactive | 1000 to 3000 | 2810 | possess both activities | 65.1 | < 100 | – | – | – | – | – |
| CC1=C(C)C(=O)C(CC[C@@](C)(O)COCCC[Si](C)(C)C)=C(C)C1=O [Compound M, (R)-2-(3-hydroxy-3-methyl-4-(3-(trimethylsilyl)propoxy)butyl)-3,5,6-trimethylcyclohexa-2,5-diene-1,4-dione] | best result | 41.2 | 41.2 | Inactive | 1000 to 3000 | 1340 | – | 61.2 | – | 56.6 +/− 11.3% | 56.6 +/− 11.3% | active | – | – |
| CC(C)=CCC/C(C)=C/CC/C(C)=C/CC[C@@](C)(O)CCC1=C(C)C(=O)C(C)=C(C)C1=O [Vatiquinone, reference compound] | – | 56 | 56 | – | > 3000 | – | – | 44.3 | < 100 | Inactive | Inactive | – | inactive | Inactive |
